In publication PMC9401487 (Clinical Cancer Research, 2021):

Tests used:
[1] = Clinical plasma pharmacokinetics of ceralasertib; assay type: in vivo; conditions: human, oral
ATR = conditions: read-out: IC90 for ATR inhibition in cells; cited from earlier work
[2] = tested on: LoVo colorectal cancer cell line; assay: LoVo growth inhibition, ceralasertib alone or with carboplatin; assay type: cell-based, human
advanced solid tumors = assay: Preliminary antitumor activity, tumor response by RECIST v1.1; assay type: in vivo, human

SMILES: C[C@@H]1COCCN1c1cc(C2([S@](C)(=N)=O)CC2)nc(-c2cc[nH]c3nccc2-3)n1 [ceralasertib]
- half-life ([1]; mean half-life, administered alone): 8.14 to 10.6 h
- half-life ([1]; mean half-life, in combination with carboplatin): 5.14 to 7.22 h
- Tmax ([1]; median tmax, in combination with carboplatin): 1.05 to 1.07 h
- Tmax ([1]; median tmax, single dose, alone, across dose groups): 1 to 1.03 h
- half-life ([1]; terminal plasma half-life, abstract summary): 8 to 11 h
- Tmax ([1]; tmax, abstract summary): ~1 h
- Combination cell killing with carboplatin ([2]; 0.1 μmol/L ceralasertib): not at 0.1 μmol/L
- Combination cell killing with carboplatin ([2]; 0.3 μmol/L ceralasertib): combination cell killing with carboplatin was seen
- Combination cell killing with carboplatin ([2]; 1 μmol/L ceralasertib): Greater cell killing
- Best response of progressive disease, patients (advanced solid tumors; 12 of 34 response-evaluable patients): 35%
- Best RECIST v1.1 response of stable disease (≥35 days), patients (advanced solid tumors; 18 of 34 response-evaluable patients, including the two unconfirmed PRs): 53%
- Unconfirmed RECIST v1.1 PRs (advanced solid tumors; evaluable-for-response set n=34, 1 in cohort 3, 1 in cohort 7): 2 patients
- Confirmed RECIST v1.1 partial responses (advanced solid tumors; evaluable-for-response set n=34, both in cohort 6): 2 patients
- Tumor reduction (unconfirmed response) (advanced solid tumors; one patient, cohort 7, clear cell ovarian cancer, two cycles): 43%
